Data from ChEMBL document CHEMBL1201862, “PubChem BioAssay data set” (2004).
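Cultured in 96-well plates, cells were exposed to test compound for 48 hours across five concentrations. GI50: concentration for 50% inhibition of growth.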 Active and inactive are the calls of the source. Rule as the data show it: active = GI50 up to about 1.1 µM and inactive = higher.

What was measured:
Assay in all cases: NCI anticancer screen, dose series, 48 h
COLO 205 = tested on: COLO 205
OVCAR-5 = tested on: OVCAR-5
HOP-62 = tested on: HOP-62
NCI-H522 = tested on: NCI-H522
HL-60 = tested on: HL-60
Malme-3M = tested on: Malme-3M
SN12C = tested on: SN12C
TK-10 = tested on: TK-10
HCT-15 = tested on: HCT-15
ACHN = tested on: ACHN
786-0 = tested on: 786-0
UACC-257 = tested on: UACC-257
MOLT-4 = tested on: MOLT-4
SW-620 = tested on: SW-620
KM-20L2 = tested on: KM-20L2
NCI-H226 = tested on: NCI-H226
HCC 2998 = tested on: HCC 2998
HOP-18 = tested on: HOP-18
SK-MEL-28 = tested on: SK-MEL-28
SNB-78 = tested on: SNB-78
M14 = tested on: M14
DLD-1 = tested on: DLD-1
SK-MEL-5 = tested on: SK-MEL-5
SK-MEL-2 = tested on: SK-MEL-2
UACC-62 = tested on: UACC-62
K562 = tested on: K562
M19-MEL = tested on: M19-MEL
OVCAR-8 = tested on: OVCAR-8
EKVX = tested on: EKVX
HT-29 = tested on: HT-29
OVCAR-3 = tested on: OVCAR-3
SNB-75 = tested on: SNB-75
RXF 393 = tested on: RXF 393
DMS-114 = tested on: DMS-114
IGROV-1 = tested on: IGROV-1
KM12 = tested on: KM12
DMS-273 = tested on: DMS-273
SF-268 = tested on: SF-268
NCI-H23 = tested on: NCI-H23
RPMI-8226 = tested on: RPMI-8226
U-251 = tested on: U-251
HOP-92 = tested on: HOP-92
CAKI-1 = tested on: CAKI-1
OVCAR-4 = tested on: OVCAR-4
SK-OV-3 = tested on: SK-OV-3
SNB-19 = tested on: SNB-19
LOX IMVI = tested on: LOX IMVI
A549 = tested on: A549
NCI-H460 = tested on: NCI-H460
CCRF-CEM = tested on: CCRF-CEM
HCT-116 = tested on: HCT-116
SF-295 = tested on: SF-295
UO-31 = tested on: UO-31
A498 = tested on: A498
LXFL 529 = tested on: LXFL 529
SF-539 = tested on: SF-539

Cc1c2ccnc(O)c2cc2c(=O)c3cnccc3[nH]c12
GI50 (COLO 205): > 100 µM (inactive) | GI50 (OVCAR-5): > 100 µM (inactive) | GI50 (HOP-62): > 100 µM (inactive) | GI50 (NCI-H522): > 100 µM (inactive) | GI50 (HL-60): > 100 µM (inactive) | GI50 (Malme-3M): > 100 µM (inactive) | GI50 (SN12C): > 100 µM (inactive) | GI50 (TK-10): > 100 µM (inactive) | GI50 (HCT-15): > 100 µM | GI50 (ACHN): > 100 µM (inactive) | GI50 (786-0): > 100 µM (inactive) | GI50 (UACC-257): > 100 µM (inactive) | GI50 (MOLT-4): > 100 µM (inactive) | GI50 (SW-620): > 100 µM (inactive) | GI50 (KM-20L2): > 100 µM (inactive) | GI50 (NCI-H226): > 100 µM (inactive) | GI50 (HCC 2998): > 100 µM (inactive) | GI50 (HOP-18): > 100 µM (inactive) | GI50 (SK-MEL-28): > 100 µM (inactive) | GI50 (SNB-78): > 100 µM (inactive) | GI50 (M14): > 100 µM (inactive) | GI50 (DLD-1): > 100 µM (inactive) | GI50 (SK-MEL-5): > 100 µM (inactive) | GI50 (SK-MEL-2): > 100 µM (inactive) | GI50 (UACC-62): > 100 µM (inactive) | GI50 (K562): > 100 µM (inactive) | GI50 (M19-MEL): > 100 µM (inactive) | GI50 (OVCAR-8): > 100 µM (inactive) | GI50 (EKVX): > 100 µM (inactive) | GI50 (HT-29): > 100 µM (inactive) | GI50 (OVCAR-3): > 100 µM (inactive) | GI50 (SNB-75): > 100 µM (inactive) | GI50 (RXF 393): > 100 µM (inactive) | GI50 (DMS-114): > 100 µM (inactive) | GI50 (IGROV-1): > 100 µM (inactive) | GI50 (KM12): > 100 µM (inactive) | GI50 (DMS-273): > 100 µM (inactive) | GI50 (SF-268): > 100 µM (inactive) | GI50 (NCI-H23): > 100 µM (inactive) | GI50 (RPMI-8226): > 100 µM (inactive) | GI50 (U-251): > 100 µM (inactive) | GI50 (HOP-92): > 100 µM (inactive) | GI50 (CAKI-1): > 100 µM (inactive) | GI50 (OVCAR-4): > 100 µM (inactive) | GI50 (SK-OV-3): > 100 µM (inactive) | GI50 (SNB-19): > 100 µM (inactive) | GI50 (LOX IMVI): > 100 µM (inactive) | GI50 (A549): > 100 µM (inactive) | GI50 (NCI-H460): > 100 µM (inactive) | GI50 (CCRF-CEM): > 100 µM (inactive) | GI50 (HCT-116): > 100 µM (inactive) | GI50 (SF-295): > 100 µM (inactive) | GI50 (UO-31): > 100 µM (inactive) | GI50 (A498): > 100 µM (inactive) | GI50 (LXFL 529): > 100 µM (inactive)

CC(=O)/C(=N\O)C(=O)Nc1ccc(Cl)cc1Cl
GI50 (COLO 205): > 100 µM (inactive) | GI50 (OVCAR-5): > 100 µM (inactive) | GI50 (HOP-62): > 100 µM (inactive) | GI50 (NCI-H522): 97.9 µM (inactive) | GI50 (HL-60): > 100 µM (inactive) | GI50 (Malme-3M): > 100 µM (inactive) | GI50 (SN12C): > 100 µM (inactive) | GI50 (TK-10): > 100 µM (inactive) | GI50 (HCT-15): > 100 µM | GI50 (ACHN): > 100 µM (inactive) | GI50 (786-0): > 100 µM (inactive) | GI50 (UACC-257): > 100 µM (inactive) | GI50 (MOLT-4): > 100 µM (inactive) | GI50 (SW-620): > 100 µM (inactive) | GI50 (KM-20L2): > 100 µM (inactive) | GI50 (NCI-H226): > 100 µM (inactive) | GI50 (HCC 2998): > 100 µM (inactive) | GI50 (HOP-18): 43.1 µM (inactive) | GI50 (SK-MEL-28): > 100 µM (inactive) | GI50 (SNB-78): > 100 µM (inactive) | GI50 (M14): > 100 µM (inactive) | GI50 (DLD-1): > 100 µM (inactive) | GI50 (SK-MEL-5): > 100 µM (inactive) | GI50 (SK-MEL-2): > 100 µM (inactive) | GI50 (UACC-62): > 100 µM (inactive) | GI50 (K562): > 100 µM (inactive) | GI50 (M19-MEL): > 100 µM (inactive) | GI50 (OVCAR-8): > 100 µM (inactive) | GI50 (EKVX): > 100 µM (inactive) | GI50 (HT-29): > 100 µM (inactive) | GI50 (OVCAR-3): > 100 µM (inactive) | GI50 (SNB-75): > 100 µM (inactive) | GI50 (RXF 393): > 100 µM (inactive) | GI50 (DMS-114): > 100 µM (inactive) | GI50 (IGROV-1): > 100 µM (inactive) | GI50 (KM12): > 100 µM (inactive) | GI50 (DMS-273): > 100 µM (inactive) | GI50 (SF-268): > 100 µM (inactive) | GI50 (NCI-H23): > 100 µM (inactive) | GI50 (RPMI-8226): > 100 µM (inactive) | GI50 (U-251): > 100 µM (inactive) | GI50 (HOP-92): > 100 µM (inactive) | GI50 (CAKI-1): > 100 µM (inactive) | GI50 (OVCAR-4): > 100 µM (inactive) | GI50 (SK-OV-3): > 100 µM (inactive) | GI50 (SNB-19): > 100 µM (inactive) | GI50 (LOX IMVI): > 100 µM (inactive) | GI50 (A549): > 100 µM (inactive) | GI50 (NCI-H460): > 100 µM (inactive) | GI50 (CCRF-CEM): 19.1 µM (inactive) | GI50 (HCT-116): > 100 µM (inactive) | GI50 (SF-295): > 100 µM (inactive) | GI50 (SF-539): > 100 µM (inactive) | GI50 (UO-31): > 100 µM (inactive) | GI50 (A498): > 100 µM (inactive) | GI50 (LXFL 529): > 100 µM (inactive)
